Experimental data as given in patent publication US20130064812A1, “COMBINATION THERAPIES FOR HEMATOLOGIC MALIGNANCIES” (Gilead Calistoga LLC, priority 2011, published 2013).

Assays:
leukemia cell lines = experiment: cells; type: cell-based; details: for apoptosis in leukemia cell lines: 1 μM or 10 μM, 24 hrs; for cellular viability of leukemia cell lines: 24 hours
Procedure: Proliferation assays (AlamarBlue®) on ALL cell lines grown in the presence of 10% FBS serum and measurements were taken at 24 hrs. Proliferation was measured in triplicate wells in 96-well plates.
The percentage of apoptotic cells was determined by Annexin V-FITC/7AAD staining.

AKT and ERK pathways = experiment: AKT and ERK pathway phosphorylation in MM cells (immunoblot); type: cell-based, human
Text: Whole-cell lysates were subjected to sodium dodecyl sulfate-polyacrylamide gel electrophoresis (SDS-PAGE) separation, transferred to Pure Nitrocellulose membranes (Bio-Rad Laboratories, Hercules, Calif.), and immunoblotted with anti-AKT, phospho(p)-AKT (Ser473, Thr 308), ERK1/2, P-ERK1/2, P-PDK1, STAT, P-STAT, P-FKRHL, P-70S6K, LC3, and PI3K/p110α Abs (Cell Signaling Danvers, Mass.); anti-p110β, PI3K/p110δ, Glyceraldehyde 3-phosphate dehydrogenase (GAPDH), α-tubulin, and actin Abs (Santa Cruz Biotechnology, CA); and anti-p110γ Ab (Alexis, San Diego, Calif.): and anti-LC3 Ab (Abgent, San Diego, Calif.).
Actin Ab was used as a loading control. […] Whole cell lysates were subjected to immunoblotting using AKT, P-AKT (Ser473 and Thr308), ERK1/2, P-ERK1/2, P-PDK1, and P-FKRHL antibodies. α-tubulin is used as a loading control.

[1] = tested on: LB and INA-6 MM cells with BMSCs; experiment: Paracrine MM cell growth, cytokine secretion and signaling with BMSCs; type: cell-based, human
Procedure: MM cells (2×10^4 cells/well) were cultured for 48 h in BMSC coated 96-well plates (Costar, Cambridge, Mass.), in the presence or absence of drug. DNA synthesis was measured by [3H]-thymidine (Perkin-Elmer, Boston, Mass.) uptake, with [3H]-thymidine (0.5μ Ci/well) added during the last 8 h of 48 h cultures. All experiments were performed in quadruplicate.
Cytokine secretion by human BMSCs cocultured with MM cells was assessed by ELISA. […] After 48 h, supernatants were harvested and stored at −80° C. Cytokines were measured using Duo set ELISA Development Kits (R&D Systems, Minneapolis, Minn.). All measurements were carried out in triplicate.
The cytokine levels in culture supernatants were assessed using Proteome Profiler Antibody Arrays Panel A (R&D Systems, Minneapolis, Minn.), Supernatants from co-cultures with BMSCs were incubated for 4 hours with membranes arrayed with Abs against 37 cytokines, according to manufacturer's instructions.
DNA synthesis was determined by [3H]-thymidine incorporation. Data represent means (±SD) of triplicate cultures.
Error bars indicate SD (±).
INA-6 cells cultured with or without BMSCs were treated with compound for 48 h. Total cell lysates were subjected to immunoblotting using indicated antibodies, FIG. 34F. Actin was used as a loading control.

PIP5Kβ = PIP5Kβ (Homo sapiens, UniProt O14986); experiment: InvitroGen Adapta kinase assay, PIP5Kβ; type: biochemical; details: Other Phosphoinositide kinases; head prints no unit
[2] = tested on: HS-578T, T47D, and MCF7 cells; experiment: Apoptosis in breast cancer cell lines (Annexin V-FITC/7AAD); type: cell-based; details: 24 h
Procedure: HS-578T, T47D, and MCF7 cells were treated with the compound of formula I or corresponding DMSO concentrations for 24 h. The percentage of apoptotic cells was determined by Annexin V-FITC/7AAD staining. Bottom left, viable cells ([…]); bottom right, early apoptotic cells (Annexin V-FITC positive only); top right, mid-late apoptotic cells (Annexin V-FITC/7AAD double-positive); and top left, late apoptotic/necrotic (7AAD positive only). Percentages of cells in each quadrant are indicated except for the bottom left quadrant (viable cells).

FL cell lines = experiment: PI3K signaling and apoptosis in follicular lymphoma cell lines; type: cell-based
PIP5Kα = PIP5Kα (Homo sapiens, UniProt Q99755); experiment: InvitroGen Adapta kinase assay, PIP5Kα; type: biochemical; details: Other Phosphoinositide kinases; head prints no unit
AKT and ERK1/2 = AKT and ERK1/2 in HuVEC (immunoblot); type: cell-based, human; details: 8 h
Text: Actin was used as a loading control.

PI3Kα = PI3Kα (Mus musculus, UniProt P42337); experiment: Isoform specific cell-based assay: PDGF induced pAKT in Swiss-3T3 fibroblasts; details: Fibroblast Cell Line, n = 12
Procedure: Swiss-3T3 fibroblasts and RAW-264 were seeded on a 96-well tissue culture plate and allowed to reach at least 90% confluency. […] Akt phosphorylation and total AKT was detected by ELISA. […] Results are expressed as relative [^3H] thymidine incorporation induced by IgM crosslinking.

DLBCL cell lines = experiment: pAKT in DLBCL cell lines; type: cell-based
[3] = human, in vivo
Procedure: This example provides data relating to the concentration of the compound of formula I in the blood of a healthy human subject on day 7. The concentration was monitored over a period of 12 hours, after oral administration of 50, 100, or 200 mg BID of the compound of formula I on day 7 of the study. FIG. 11 follows the plasma concentration of the drug over a period of 12 hours from administration.
In addition, single dose studies wherein 17-400 mg of the compound of formula I was administered in healthy volunteers was carried out.
Table 1, below, provides an overview of the subjects in the study, wherein either a singe dose (SD) or multiple dose (MD) of the compound of formula I is administered to a subject at varying amounts. The “n” values refer to the number of subjects in each group.

INA-6 and LB MM cells = experiment: Autophagy / AVO development in MM cells; type: cell-based, human
Procedure: To detect and quantify AVOs in compound 1 or 3MA-treated cells, vital staining was performed for 15 min with acridine orange at a final concentration of 1 μg/ml. Samples were examined under a fluorescence microscope.
Autophagosome formation was defined by the accumulation of LC3; arrows indicate autophagosomes, FIG. 33A.
GAPDH served as a loading control.

over 350 protein kinases = experiment: Ambit KINOMEscan kinome-wide protein kinase screen; type: binding; details: 10 μM, over 350 protein kinases (over 300)
Text: Examples of some kinases in the screen are shown below in Table 3.

[4] = listed as compound of formula I

PIP5Kβ, sequence (O14986 whole entry): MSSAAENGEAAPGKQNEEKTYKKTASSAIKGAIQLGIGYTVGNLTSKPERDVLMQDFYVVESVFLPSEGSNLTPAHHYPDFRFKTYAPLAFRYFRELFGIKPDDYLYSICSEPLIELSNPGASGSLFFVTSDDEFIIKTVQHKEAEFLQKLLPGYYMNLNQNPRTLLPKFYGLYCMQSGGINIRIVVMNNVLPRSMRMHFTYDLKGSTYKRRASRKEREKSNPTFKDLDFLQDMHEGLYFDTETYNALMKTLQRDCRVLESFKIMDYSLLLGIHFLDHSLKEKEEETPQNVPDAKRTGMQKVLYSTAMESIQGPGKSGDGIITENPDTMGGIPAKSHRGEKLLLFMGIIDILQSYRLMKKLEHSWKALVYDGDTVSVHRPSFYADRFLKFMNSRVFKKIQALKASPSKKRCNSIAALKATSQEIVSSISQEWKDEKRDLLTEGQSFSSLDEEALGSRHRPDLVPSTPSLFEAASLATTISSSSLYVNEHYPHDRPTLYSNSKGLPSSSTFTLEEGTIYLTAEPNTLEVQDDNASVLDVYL
PIP5Kα, sequence (Q99755 whole entry): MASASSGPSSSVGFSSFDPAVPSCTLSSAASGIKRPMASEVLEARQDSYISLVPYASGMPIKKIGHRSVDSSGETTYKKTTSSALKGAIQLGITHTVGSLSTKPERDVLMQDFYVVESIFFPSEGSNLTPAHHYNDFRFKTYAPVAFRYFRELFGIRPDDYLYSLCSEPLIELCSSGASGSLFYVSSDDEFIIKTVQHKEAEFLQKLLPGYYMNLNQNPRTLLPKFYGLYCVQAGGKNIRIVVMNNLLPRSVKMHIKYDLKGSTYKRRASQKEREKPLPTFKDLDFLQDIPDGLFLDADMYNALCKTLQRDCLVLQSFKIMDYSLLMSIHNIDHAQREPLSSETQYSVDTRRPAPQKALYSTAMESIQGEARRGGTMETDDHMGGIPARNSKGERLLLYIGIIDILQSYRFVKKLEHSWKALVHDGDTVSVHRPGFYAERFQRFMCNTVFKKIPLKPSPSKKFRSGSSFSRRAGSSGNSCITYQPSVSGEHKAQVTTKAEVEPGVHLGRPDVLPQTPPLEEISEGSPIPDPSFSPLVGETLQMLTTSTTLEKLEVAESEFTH
PI3Kα, sequence (P42337 whole entry, canonical isoform): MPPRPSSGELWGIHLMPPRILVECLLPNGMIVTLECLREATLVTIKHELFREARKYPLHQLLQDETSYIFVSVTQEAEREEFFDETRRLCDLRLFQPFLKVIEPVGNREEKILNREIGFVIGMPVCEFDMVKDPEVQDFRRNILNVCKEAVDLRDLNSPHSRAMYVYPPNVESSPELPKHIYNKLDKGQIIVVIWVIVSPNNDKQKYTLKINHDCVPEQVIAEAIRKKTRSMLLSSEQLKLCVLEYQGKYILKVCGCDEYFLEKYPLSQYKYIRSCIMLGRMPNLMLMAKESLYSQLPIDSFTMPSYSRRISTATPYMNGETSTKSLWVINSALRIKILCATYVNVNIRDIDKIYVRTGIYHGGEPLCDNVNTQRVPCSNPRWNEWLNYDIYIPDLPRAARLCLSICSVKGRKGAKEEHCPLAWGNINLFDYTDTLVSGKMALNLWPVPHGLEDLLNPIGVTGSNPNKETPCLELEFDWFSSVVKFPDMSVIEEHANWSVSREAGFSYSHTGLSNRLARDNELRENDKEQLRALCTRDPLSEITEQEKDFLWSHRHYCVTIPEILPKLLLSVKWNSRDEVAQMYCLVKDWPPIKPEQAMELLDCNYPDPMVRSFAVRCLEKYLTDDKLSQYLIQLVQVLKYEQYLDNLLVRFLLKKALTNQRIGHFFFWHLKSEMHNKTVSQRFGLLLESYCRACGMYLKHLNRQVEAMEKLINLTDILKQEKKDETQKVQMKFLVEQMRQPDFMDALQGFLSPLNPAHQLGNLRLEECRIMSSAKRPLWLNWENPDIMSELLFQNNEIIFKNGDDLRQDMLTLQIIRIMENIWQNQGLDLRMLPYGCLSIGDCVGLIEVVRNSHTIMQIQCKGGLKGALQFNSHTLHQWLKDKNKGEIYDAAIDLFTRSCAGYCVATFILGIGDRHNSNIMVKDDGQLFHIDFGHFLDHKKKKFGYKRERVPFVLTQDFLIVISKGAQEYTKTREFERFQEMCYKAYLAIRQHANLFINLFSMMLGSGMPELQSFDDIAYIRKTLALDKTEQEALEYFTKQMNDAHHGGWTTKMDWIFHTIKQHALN
PI3Kα, sequence (P26450 whole entry partner, canonical isoform): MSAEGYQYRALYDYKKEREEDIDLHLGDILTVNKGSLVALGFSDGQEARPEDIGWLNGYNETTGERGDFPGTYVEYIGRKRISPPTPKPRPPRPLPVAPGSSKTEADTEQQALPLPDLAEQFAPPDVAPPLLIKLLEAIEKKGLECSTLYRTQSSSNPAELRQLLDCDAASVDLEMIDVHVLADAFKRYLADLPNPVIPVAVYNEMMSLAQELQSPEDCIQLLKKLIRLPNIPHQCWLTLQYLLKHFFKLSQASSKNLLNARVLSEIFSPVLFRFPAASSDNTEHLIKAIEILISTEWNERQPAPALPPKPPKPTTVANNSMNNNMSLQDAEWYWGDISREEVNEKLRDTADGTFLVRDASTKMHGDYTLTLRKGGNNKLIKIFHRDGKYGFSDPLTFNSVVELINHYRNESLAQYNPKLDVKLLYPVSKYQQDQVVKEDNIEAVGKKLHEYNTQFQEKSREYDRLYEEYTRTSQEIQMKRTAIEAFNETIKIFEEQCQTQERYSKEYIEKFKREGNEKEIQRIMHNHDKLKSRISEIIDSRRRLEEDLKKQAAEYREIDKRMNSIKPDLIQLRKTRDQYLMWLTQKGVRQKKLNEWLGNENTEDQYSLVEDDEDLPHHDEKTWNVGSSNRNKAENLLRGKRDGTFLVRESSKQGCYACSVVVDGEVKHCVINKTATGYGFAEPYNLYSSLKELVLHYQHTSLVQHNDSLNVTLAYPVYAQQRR

SMILES: CC[C@H](Nc1ncnc2[nH]cnc12)c1nc2cccc(F)c2c(=O)n1-c1ccccc1 [Compound I, 5-fluoro-3-phenyl-2-[1-(9H-purin-6-ylamino)-propyl]-3H-quinazolin-4-one]
- apoptosis in leukemia cell lines (leukemia cell lines): increase in apoptosis in the treated cells
- apoptosis in leukemia cell lines (leukemia cell lines; listed as compound I): induces apoptosis in leukemia cell lines
- cytotoxicity at 10 µM (leukemia cell lines; 24 h, read-out: reduction of viability): 40 to 50%
- cellular viability of leukemia cell lines (leukemia cell lines): strongly affected by 5-10 micromolar concentrations
- cellular viability of leukemia cell lines (leukemia cell lines; listed as compound I): reduces cellular viability in a dose dependent manner
- phosphorylation of PDK-1 and FKHRL (AKT and ERK pathways; INA-6 and LB, 0-6 hours): significantly inhibited phosphorylation of upstream PDK-1 and downstream FKHRL
- phosphorylation of AKT or ERK, MM.1S cells (AKT and ERK pathways; low expression of P110δ, 0-5.0 μM, 6 hours): did not affect phosphorylation of AKT or ERK
- phosphorylation of AKT and ERK1/2, INA-6 cells (AKT and ERK pathways; p110δ positive, 12 h): significantly blocked phosphorylation of AKT and ERK1/2
- MM cell growth and cytokine secretion induced by BMSCs ([1]; 48 h): inhibited growth and cytokine secretion
- phosphorylation of AKT and ERK induced by BMSCs ([1]; INA-6, 48 h): inhibited
- IC50 (PIP5Kβ): > 1 µM
- apoptosis in breast cancer cell lines [2]: cytotoxicity to three different breast cancer cell lines
- apoptosis in breast cancer cell lines [2, 4]: induces apoptosis in breast cancer cell lines
- pAkt, Akt, pS6 and S6 in FL cell lines (FL cell lines): reduction in the production of pAkt, Akt, pS6 and S6
- cleavage of PARP and Caspase-3 in FL cell lines (FL cell lines; 24 hours, 0.1 μM and 0.5 μM): Cleavage of PARP and Caspase-3 is observed
- IC50 (PIP5Kα): > 1 µM
- phosphorylation and expression of AKT and ERK1/2 in HuVEC (AKT and ERK1/2): markedly down regulated
- EC50 (PI3Kα): > 20 µM
- pAKT levels in DLBCL cell lines (DLBCL cell lines): reduces pAKT levels in several DLBCL cell lines
- concentration level versus PI3Kδ EC50 in basophil [3]: exceeds the PI3Kδ EC50 concentration in basophil for at least 12 hours
- tolerability in normal healthy volunteers [3]: well tolerated at doses above commonly used therapeutic doses
- LC3 staining (INA-6 and LB MM cells; 5 μM, 6 h, INA-6 and LB): markedly increased LC 3 staining
- LC3-II and Beclin1 protein (INA-6 and LB MM cells; INA-6, 6 h): markedly increased LC3-II and Beclin1 protein
- acidic vesicular organelle (AVO) development (INA-6 and LB MM cells; acridine orange staining, LB and INA-6): development of AVOs
- activity in kinome-wide protein kinase screen (over 350 protein kinases): failed to detect any activity
- activity in kinome-wide protein kinase screen (over 350 protein kinases; [4]): little activity
